PMC4234439 (Journal of Medicinal Chemistry, 2014)

Experiments:
[1] = plasma protein binding by ultracentrifugation; type: in vitro ADME; conditions: 37 °C
[2] = plasma exposure in Swiss mice; type: in vivo, Swiss outbred mice; conditions: oral 10 mg/kg, PEG400 suspension, comparison in words
[3] = human liver microsomal stability; type: in vitro ADME; conditions: liver microsomes, intrinsic clearance (CLint)
[4] = system: P. falciparum strain TM90-C2B (chloroquine, mefloquine, pyrimethamine, and atovaquone resistant); test: microbe, parasite or virus in culture; conditions: Plasmodium falciparum, TM90, read-out: EC50 (nM) TM90-C2B
P. berghei-GFP parasites = type: in vivo, Plasmodium berghei; conditions: for animals cured: Thompson test, 10 mg/kg, five mice per group

## COc1cc2[nH]c(C)c(-c3ccc(Oc4ccc(OC(F)(F)F)cc4)cc3F)c(=O)c2cc1Cl [Compound 7]
[1]
  binding to plasma proteins: > 99%
[2]
  plasma exposure: highest exposure

## COc1cc2[nH]c(C)c(-c3cccnc3)c(=O)c2cc1Cl [Compound 20, 6-Chloro-7-methoxy-2-methyl-3-(pyridin-3-yl)quinolin-4(1H)-one]
[3]
  microsomal CLint at 1 μM: < 15 µL/min/mg

## COc1cc2[nH]c(C)c(-c3ccncc3)c(=O)c2cc1Cl [Compound 21, 6-Chloro-7-methoxy-2-methyl-3-(pyridin-4-yl)quinolin-4(1H)-one]
[3]
  microsomal CLint at 1 μM: < 15 µL/min/mg

## COc1cc2[nH]c(C)c(-c3ccc(N4CCN(C)CC4)nc3)c(=O)c2cc1Cl [Compound 24, 6-Chloro-7-methoxy-2-methyl-3-(6-(4-methylpiperazin-1-yl)pyridin-3-yl)quinolin-4(1H)-one]
[4]
  EC50: ≥ 536 nM

## COc1cc2[nH]c(C)c(-c3cc4ccccc4s3)c(=O)c2cc1Cl [Compound 30, 3-(Benzo[b]thiophen-2-yl)-6-chloro-7-methoxy-2-methylquinolin-4(1H)-one]
[4]
  EC50: 24.8 to 138 nM

## COc1cc2[nH]c(C)c(-c3ccc(Oc4ccccc4)cc3)c(=O)c2cc1Cl [Compound 46, 6-Chloro-7-methoxy-2-methyl-3-(4-phenoxyphenyl)quinolin-4(1H)-one]
[3]
  microsomal CLint at 1 μM: 19 µL/min/mg

## COc1cc2[nH]c(C)c(-c3ccc(C(F)(F)F)cc3)c(=O)c2cc1Cl [Compound 52, 6-Chloro-7-methoxy-2-methyl-3-(4-(trifluoromethyl)phenyl)quinolin-4(1H)-one]
[2]
  plasma exposure: substantially lower

## COc1cc2[nH]c(C)c(-c3ccc(Oc4ccc(OC(F)(F)F)cc4)cc3C)c(=O)c2cc1Cl [Compound 62, 6-Chloro-7-methoxy-2-methyl-3-(2-methyl-4-(4-(trifluoromethoxy)phenoxy)phenyl)-quinolin-4(1H)-one]
P. berghei-GFP parasites
  animals cured: two out of five

## COc1cc2[nH]c(C)c(-c3ccc(-c4ccc(C(F)(F)F)cc4F)nc3)c(=O)c2cc1Cl [Compound 66, 6-Chloro-3-(6-(2-fluoro-4-(trifluoromethyl)phenyl)pyridin-3-yl)-7-methoxy-2-methylquinolin-4(1H)-one]
[2]
  plasma exposure: slightly lower exposure

## COc1cc2[nH]c(C)c(-c3ccc(-c4ccc(OC(F)(F)F)cc4)nc3)c(=O)c2cc1Cl [Compound 67, 6-Chloro-7-methoxy-2-methyl-3-(6-(4-(trifluoromethoxy)phenyl)pyridin-3-yl)quinolin-4(1H)-one]
P. berghei-GFP parasites
  animals cured: cured all the mice
[2]
  plasma exposure: slightly lower exposure

## O=C1C(O)=C([C@H]2CC[C@H](c3ccc(Cl)cc3)CC2)C(=O)c2ccccc21 [atovaquone, reference compound]
P. berghei-GFP parasites; days survived beyond untreated control, 50 mg/kg p.o. days 3–5 PE
  survival: 23 days
